Calls of active or inactive are those of the source. How the calls were made is not given here.
System: rodent carcinogenicity bioassays, tumor incidence
Assay: CCRIS carcinogenicity studies
Conditions: Dose: 0
Method in brief: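 NCI-built, expert-reviewed records of carcinogenicity and related test outcomes (mutagenicity, tumor promotion/inhibition) compiled from published and report sources, historical span 1985-2011, not updated.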

## c1ccc2c(c1)-c1cccc3cccc-2c13
Species: MOUSE, Strain/Sex: B6C3F1/MALE, Route: INTRAPERITONEAL, 400 NMOL IN 35 µL DMSO ON DAYS 1 (1/7 TOTAL DOSE), 8 (2/7 TOTAL DOSE), AND 15 (4/7 TOTAL DOSE) AFTER BIRTH (STUDY DUR
  carcinogen call: inactive; negative
Species: MOUSE, Strain/Sex: CD-1/FEMALE, Route: INTRAPERITONEAL, 3.46, 17.3 UMOL (TOTAL DOSE) IN DMSO ADMINISTERED ON DAYS 1, 8, AND 15 OF LIFE (STUDY DURATION: 52 WK), 3.46, 17.3 UMOL (TOTAL DOSE) IN DMSO ADMINISTERED ON DAYS 1, 8, AND 15 OF LIFE (STUDY DURATION: 52 WK), Tumor Site: Type of Lesion: LUNG: TUMOR
  carcinogen call: active; positive
Species: MOUSE, Strain/Sex: CD-1/MALE, FEMALE, Route: INTRAPERITONEAL, 0.7, 1.75, 3.5 (TOTAL DOSE) ADMINISTERED TO NEWBORN MICE ON DAYS 1, 8, AND 15 OF AGE IN 1/7, 2/7, AND 4/7 DOSES, RESP, 0.7, 1.75, 3.5 (TOTAL DOSE) ADMINISTERED TO NEWBORN MICE ON DAYS 1, 8, AND 15 OF AGE IN 1/7, 2/7, AND 4/7 DOSES, RESP, Tumor Site: Type of Lesion: LUNG: ADENOMA OR ADENOCARCINOMA
  carcinogen call: active; positive
Species: MOUSE, Strain/Sex: CD-1/MALE, Route: INTRAPERITONEAL, 3.46, 17.3 UMOL (TOTAL DOSE) IN DMSO ADMINISTERED ON DAYS 1, 8, AND 15 OF LIFE (STUDY DURATION: 52 WK), 3.46, 17.3 UMOL (TOTAL DOSE) IN DMSO ADMINISTERED ON DAYS 1, 8, AND 15 OF LIFE (STUDY DURATION: 52 WK), Tumor Site: Type of Lesion: LUNG: TUMOR, LIVER: TUMOR
  carcinogen call: active; positive
Species: MOUSE, Strain/Sex: ICR/FEMALE, Route: INTRAPERITONEAL, 257.6 UG TOTAL DOSE (36.8 UG/5 µL, 73.6 UG/10 µL, 147.2 UG/20 µL DMSO ON DAYS 1, 8 AND 15) ADMINISTERED TO NEWBORN AN, Tumor Site: Type of Lesion: LUNG: ADENOMA
  carcinogen call: active; positive
Species: MOUSE, Strain/Sex: ICR/MALE, Route: INTRAPERITONEAL, 257.6 UG TOTAL DOSE (36.8 UG/5 µL, 73.6 UG/10 µL, 147.2 UG/20 µL DMSO ON DAYS 1, 8 AND 15) ADMINISTERED TO NEWBORN AN, Tumor Site: Type of Lesion: LUNG: ADENOMA
  carcinogen call: active; positive
Species: MOUSE, Strain/Sex: SWISS/FEMALE, Route: INTRAPERITONEAL, 100, 500 UG IN DMSO ON DAY 1 OF STUDY FOLLOWED BY 0, 200, 1000 UG ON DAY 8 THEN 0, 400, 2000 UG ON DAY 15 ADMINISTERE, 100, 500 UG IN DMSO ON DAY 1 OF STUDY FOLLOWED BY 0, 200, 1000 UG ON DAY 8 THEN 0, 400, 2000 UG ON DAY 15 ADMINISTERE, Tumor Site: Type of Lesion: LUNG: ADENOMA OR CARCINOMA
  carcinogen call: active; positive
Species: MOUSE, Strain/Sex: SWISS/MALE, Route: INTRAPERITONEAL, 100, 500 UG IN DMSO ON DAY 1 OF STUDY FOLLOWED BY 0, 200, 1000 UG ON DAY 8 THEN 0, 400, 2000 UG ON DAY 15 ADMINISTERE, 100, 500 UG IN DMSO ON DAY 1 OF STUDY FOLLOWED BY 0, 200, 1000 UG ON DAY 8 THEN 0, 400, 2000 UG ON DAY 15 ADMINISTERE, Tumor Site: Type of Lesion: LUNG: ADENOMA OR CARCINOMA
  carcinogen call: active; positive

## c1ccc2c(c1)ccc1cc3ccc4c(c3nc12)[C@@H]1O[C@@H]1CC4
Species: MOUSE, Strain/Sex: CD-1/FEMALE, Route: INTRAPERITONEAL, 28 NMOL (TOTAL DOSE) ADMINISTERED AS 1/7 OF DOSE WITHIN 24 HR AFTER BIRTH, 2/7 OF DOSE AT 8 D OLD, 4/7 OF DOSE AT 15
  carcinogen call: inactive; negative
Species: MOUSE, Strain/Sex: CD-1/MALE, Route: INTRAPERITONEAL, 28 NMOL (TOTAL DOSE) ADMINISTERED AS 1/7 OF DOSE WITHIN 24 HR AFTER BIRTH, 2/7 OF DOSE AT 8 D OLD, 4/7 OF DOSE AT 15
  carcinogen call: inactive; negative

## Nc1ccc(N)c2c1C(=O)c1c(N)ccc(N)c1C2=O
Species: MOUSE, Strain/Sex: B6C3F1/FEMALE, Route: ORAL, 600, 1200, 2500 PPM IN DIET FOR 104 WK (STUDY DURATION: 105 WK), 600, 1200, 2500 PPM IN DIET FOR 104 WK (STUDY DURATION: 105 WK)
  carcinogen call: inactive; negative
Species: MOUSE, Strain/Sex: B6C3F1/MALE, Route: ORAL, 600, 1200, 2500 PPM IN DIET FOR 104 WK (STUDY DURATION: 105 WK), 600, 1200, 2500 PPM IN DIET FOR 104 WK (STUDY DURATION: 105 WK), Tumor Site: Type of Lesion: LIVER: HEPATOCELLULAR ADENOMA OR CARCINOMA, LUNG: ALVEOLAR/BRONCHIOLAR ADENOMA OR CARCINOMA
  carcinogen call: equivocal
Species: RAT, Strain/Sex: F344/FEMALE, Route: ORAL, 1250, 2500, 5000 PPM IN DIET FOR 103 WK (STUDY DURATION: 105 WK), 1250, 2500, 5000 PPM IN DIET FOR 103 WK (STUDY DURATION: 105 WK), Tumor Site: Type of Lesion: URINARY BLADDER: SQUAMOUS CELL PAPILLOMA, SQUAMOUS CELL CARCINOMA, TRANSITIONAL CELL PAPILLOMA, TRANSITIONAL CELL CARCIN
  carcinogen call: active; positive
Species: RAT, Strain/Sex: F344/MALE, Route: ORAL, 1250, 2500, 5000 PPM IN DIET FOR 103 WK (STUDY DURATION: 105 WK), 1250, 2500, 5000 PPM IN DIET FOR 103 WK (STUDY DURATION: 105 WK), Tumor Site: Type of Lesion: URINARY BLADDER: SQUAMOUS CELL PAPILLOMA, SQUAMOUS CELL PAPILLOMA OR CARCINOMA, TRANSITIONAL CELL PAPILLOMA, TRANSITIONA
  carcinogen call: active; positive

— PubChem BioAssay AID1259411 (Chemical Carcinogenesis Research Information System (CCRIS), 2018)
